The values below come from patent US9650377B2, “Diazepinone derivatives” (Novartis AG, priority 2012, dated 2017).

SMILES strings stand for the structures. Where only a bound is given, the exact number is not on record here.

In one test the target is human mGluR5a receptors (Homo sapiens (Human), UniProt P41594). The experiment in a line: Inhibition of glutamate-induced elevation of intracellular calcium in L(tk−) cells expressing human mGluR5a receptors. The test is classed as cell-based. Particulars: read-out: mGluR5 IC50. From the text:
Activity of compounds of the present invention was examined by determination to what extent the glutamate-induced elevation of the intracellular calcium concentration in L(tk−) cells expressing human mGluR5a receptors (see L. P. Daggett et al., Neuropharm. Vol. 34, pages 871-886, 1995) is inhibited by utilizing methods as described e.g. by L. P. Daggett et al., Neuropharm. Vol. 34, pages 871-886 (1995) and P. J. Flor et al., J. Neurochem. Vol. 67, pages 58-63 (1996).
Activity of compounds of the present invention with respect to mGluR1 antagonism was examined by an assay based on measurements of L-glutamate induced intracellular calcium increases using a 96 well plate-based Fluorometric Imaging Plate Reader (FLIPR), and CHO cells stably expressing human mGluR1.

Another test concerns the target human mGluR1 (Homo sapiens (Human), UniProt Q13255). The experiment in a line: mGluR1 antagonism: L-glutamate induced intracellular calcium increases, FLIPR, CHO cells stably expressing human mGluR1. The test is classed as cell-based. Particulars: inhibition of glutamate-induced elevation of intracellular calcium. The source says: Activity of compounds of the present invention with respect to mGluR1 antagonism was examined by an assay based on measurements of L-glutamate induced intracellular calcium increases using a 96 well plate-based Fluorometric Imaging Plate Reader (FLIPR), and CHO cells stably expressing human mGluR1. L-glutamate induced robust calcium responses via human mGluR1 in a concentration-dependent manner and in the low micromolar range. The table below represents IC50 values of the inhibition of the glutamate-induced elevation of the intracellular calcium concentration.
On the technique in general: A change in cytosolic calcium serves as a functional read-out for many receptors and channels.

Sequence of human mGluR5a receptors (P41594 other isoform, or with tags, fused parts or gaps): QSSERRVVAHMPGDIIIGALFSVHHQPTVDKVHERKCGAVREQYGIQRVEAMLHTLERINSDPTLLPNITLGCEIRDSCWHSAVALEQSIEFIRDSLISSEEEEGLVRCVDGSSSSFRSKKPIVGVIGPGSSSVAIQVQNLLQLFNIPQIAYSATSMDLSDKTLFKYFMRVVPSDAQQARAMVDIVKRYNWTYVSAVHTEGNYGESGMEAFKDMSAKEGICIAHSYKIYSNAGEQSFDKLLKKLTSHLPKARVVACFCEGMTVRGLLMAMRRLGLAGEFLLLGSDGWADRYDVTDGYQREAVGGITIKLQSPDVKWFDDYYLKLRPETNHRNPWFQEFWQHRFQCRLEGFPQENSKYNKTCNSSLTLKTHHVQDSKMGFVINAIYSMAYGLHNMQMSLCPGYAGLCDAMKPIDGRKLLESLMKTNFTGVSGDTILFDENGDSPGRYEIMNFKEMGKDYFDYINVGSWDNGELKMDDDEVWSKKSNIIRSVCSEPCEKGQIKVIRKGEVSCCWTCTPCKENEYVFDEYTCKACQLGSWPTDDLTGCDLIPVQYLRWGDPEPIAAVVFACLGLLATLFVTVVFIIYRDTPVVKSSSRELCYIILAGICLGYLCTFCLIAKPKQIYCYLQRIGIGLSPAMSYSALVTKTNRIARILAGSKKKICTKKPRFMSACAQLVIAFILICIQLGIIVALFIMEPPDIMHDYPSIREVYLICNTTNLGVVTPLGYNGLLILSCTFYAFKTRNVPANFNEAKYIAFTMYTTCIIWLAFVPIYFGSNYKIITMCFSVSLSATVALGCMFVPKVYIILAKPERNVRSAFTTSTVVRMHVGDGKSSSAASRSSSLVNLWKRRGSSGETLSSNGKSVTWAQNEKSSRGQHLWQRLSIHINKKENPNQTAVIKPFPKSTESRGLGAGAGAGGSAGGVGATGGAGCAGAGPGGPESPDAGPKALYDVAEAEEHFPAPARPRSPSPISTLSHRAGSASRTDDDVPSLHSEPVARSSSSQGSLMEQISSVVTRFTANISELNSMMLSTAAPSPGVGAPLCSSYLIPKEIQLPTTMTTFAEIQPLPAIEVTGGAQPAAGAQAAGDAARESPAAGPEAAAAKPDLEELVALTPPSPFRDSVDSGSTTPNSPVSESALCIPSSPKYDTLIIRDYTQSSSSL
Sequence of human mGluR1 (Q13255 19-1194): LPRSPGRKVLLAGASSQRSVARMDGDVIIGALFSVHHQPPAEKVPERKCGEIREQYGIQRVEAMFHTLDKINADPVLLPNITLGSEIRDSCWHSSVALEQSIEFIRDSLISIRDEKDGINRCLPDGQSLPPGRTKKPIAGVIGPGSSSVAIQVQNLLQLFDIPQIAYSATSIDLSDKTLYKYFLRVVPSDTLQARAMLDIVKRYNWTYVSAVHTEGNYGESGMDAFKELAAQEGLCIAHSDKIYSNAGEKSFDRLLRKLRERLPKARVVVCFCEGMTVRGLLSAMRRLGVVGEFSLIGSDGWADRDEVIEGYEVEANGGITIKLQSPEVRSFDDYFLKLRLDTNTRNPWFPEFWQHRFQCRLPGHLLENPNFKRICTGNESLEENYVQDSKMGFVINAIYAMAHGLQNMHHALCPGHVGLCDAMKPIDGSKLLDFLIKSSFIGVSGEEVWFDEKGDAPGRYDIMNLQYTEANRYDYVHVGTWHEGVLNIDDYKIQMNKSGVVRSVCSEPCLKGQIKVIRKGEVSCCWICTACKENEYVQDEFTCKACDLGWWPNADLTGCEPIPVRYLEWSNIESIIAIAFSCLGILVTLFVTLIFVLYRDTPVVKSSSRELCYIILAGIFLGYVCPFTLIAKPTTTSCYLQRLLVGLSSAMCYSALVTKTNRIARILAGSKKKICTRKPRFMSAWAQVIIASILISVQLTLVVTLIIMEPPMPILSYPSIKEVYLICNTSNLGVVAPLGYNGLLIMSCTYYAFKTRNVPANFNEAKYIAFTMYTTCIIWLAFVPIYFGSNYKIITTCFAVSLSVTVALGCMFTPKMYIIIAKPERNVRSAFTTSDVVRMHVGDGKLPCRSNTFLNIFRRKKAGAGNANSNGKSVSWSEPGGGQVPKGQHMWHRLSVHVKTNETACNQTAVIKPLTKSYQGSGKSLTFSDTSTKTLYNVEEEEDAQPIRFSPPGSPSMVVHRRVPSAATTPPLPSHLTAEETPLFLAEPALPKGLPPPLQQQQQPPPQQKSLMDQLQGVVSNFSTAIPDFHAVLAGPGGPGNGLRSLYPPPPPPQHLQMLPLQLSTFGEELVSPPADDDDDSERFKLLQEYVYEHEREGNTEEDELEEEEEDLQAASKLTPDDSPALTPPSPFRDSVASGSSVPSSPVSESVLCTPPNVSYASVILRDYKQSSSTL

For the compound `CCOCc1cn(C2=NCC(=O)N3CCc4c(cccc4-c4nc(C)cs4)C3=C2)cn1` [Example 88i, 2-(4-(ethoxymethyl)-1H-imidazol-1-yl)-9-(4-methylthiazol-2-yl)-7,8-dihydro-[1,4]diazepino[7,1-a]isoquinolin-5(4H)-one], the concentration for half-maximal inhibition (IC50) (in general, the point on the concentration scale where inhibition reaches its midpoint) on human mGluR5a receptors was 340 nM; on human mGluR1, more than 10000 nM.
In the same order, the values of `CCc1cn(C2=NCC(=O)N3CCc4c(cccc4C(C)O)C3=C2)cn1` (racemic) [Example 115, 2-(4-ethyl-1H-imidazol-1-yl)-9-(1-hydroxyethyl)-7,8-dihydro-[1,4]diazepino[7,1-a]isoquinolin-5(4H)-one] are 495 nM and more than 10000 nM.
As for `Cc1nc(-c2cccc3c2CCN2C(=O)CN=C(n4cnc(C5CCC5)c4)C=C32)co1` [Example 108b, 2-(4-cyclobutyl-1H-imidazol-1-yl)-9-(2-methyloxazol-4-yl)-7,8-dihydro-[1,4]diazepino[7,1-a]isoquinolin-5(4H)-one], the IC50 is 23 nM on human mGluR5a receptors and 1920 nM at human mGluR1.
For the compound `Cn1cc(C2=NCC(=O)N3CCc4c(I)cccc4C3=C2)cn1` [Example 32, 9-iodo-2-(1-methyl-1H-pyrazol-4-yl)-7,8-dihydro-[1,4]diazepino[7,1-a]isoquinolin-5(4H)-one], the 50% inhibitory concentration (IC50) amounted to 10 nM on human mGluR5a receptors and 35 nM at human mGluR1.
